One series relates to healthy volunteers. In words: Clinical effect on serum uric acid (phase 1 RDEA594-109). The series is classed as in vivo, human. How it is done:
In each treatment period, plasma samples were collected within 30 minutes before dosing (pre-dose) and at 0.5, 1, 1.5, 2, 3, 4, 5, 6, 8, 10, 12, 16, 24, 30, 36, and 48 hours post-dose. Urine (total catch) was collected pretreatment at hours –24 to –18, –18 to –12, and –12 to 0, and post-dose at hours 0 to 6, 6 to 12, 12 to 24, 24 to 30, 30 to 36, and 36 to 48.
Serum was collected within 30 minutes prior to drug administration, and at 6, 12, 16, 24, 30, 36, and 48 hours after dosing. Serum urate levels and PD parameters were assayed and calculated by Covance Clinical Research Unit as described above.

A further series deals with OAT3. Details: method as in earlier work. As to conditions: oocytes, 2 µM 3H-estrone sulfate, 60 min; shown in Figure S1; ref 41 (Shen et al.); read-out: IC50 against OAT3; cited from earlier work.

In general, IC50 refers to the point on the concentration scale where inhibition reaches its midpoint. With `O=C(O)CSc1nnc(Br)n1-c1ccc(C2CC2)c2ccccc12` [Lesinurad, 2-((5-bromo-4-(4-cyclopropylnaphthalen-1-yl)-4H-1,2,4-triazol-3-yl)thio) acetic acid], the “Reduction of sUA” value in the series with healthy volunteers (single 200-mg dose, after 6 hours, p < 0.001) came out at 33%; with healthy volunteers (single 600-mg dose, after 24 hours), 31%. In the series on healthy volunteers (single 600-mg dose, after 6 hours), the “Maximum reduction of sUA” value came out at 42%. Further, the IC50 in the series with OAT3 was 3.54 µM.

The values above are taken from paper PMC5048659 (Arthritis Research & Therapy, 2016).
